In ChEMBL document CHEMBL1201862, “PubChem BioAssay data set” (2004):
The source made the active and inactive calls.

Tests used:
[1] = molecular target: Eukaryotic translation initiation factor 4H (Homo sapiens, UniProt Q15056); assay: eIF4H binding inhibition – biochemical, uHTS, fluorescence polarization, translation initiation inhibitor project, primary screen (AID 2012)
[2] = molecular target: Polyadenylate-binding protein 1 (Homo sapiens, UniProt P11940); assay: blockers of PABP interaction with poly(A) – biochemical, fluorescence polarization, […] (AID 2014)
Sequence of Polyadenylate-binding protein 1 (P11940 whole entry): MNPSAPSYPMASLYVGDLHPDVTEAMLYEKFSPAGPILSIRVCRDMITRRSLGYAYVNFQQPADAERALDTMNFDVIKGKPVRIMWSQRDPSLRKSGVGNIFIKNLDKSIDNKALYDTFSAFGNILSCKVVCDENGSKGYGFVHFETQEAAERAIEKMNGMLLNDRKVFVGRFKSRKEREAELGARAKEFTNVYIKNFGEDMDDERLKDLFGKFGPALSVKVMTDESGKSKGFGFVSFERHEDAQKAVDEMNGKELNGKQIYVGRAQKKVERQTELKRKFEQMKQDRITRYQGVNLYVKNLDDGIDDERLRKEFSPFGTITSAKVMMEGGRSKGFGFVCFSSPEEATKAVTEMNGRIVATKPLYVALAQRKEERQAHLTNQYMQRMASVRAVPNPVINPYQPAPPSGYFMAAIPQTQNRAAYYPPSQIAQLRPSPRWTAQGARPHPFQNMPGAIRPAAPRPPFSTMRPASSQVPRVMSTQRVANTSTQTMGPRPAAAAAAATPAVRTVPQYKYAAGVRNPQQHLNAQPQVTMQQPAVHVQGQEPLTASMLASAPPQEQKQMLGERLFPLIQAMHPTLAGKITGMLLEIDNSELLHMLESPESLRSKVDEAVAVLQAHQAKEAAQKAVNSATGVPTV

[3] = molecular target: Eukaryotic translation initiation factor 4E (Mus musculus, UniProt P63073); assay: blockers of eIF4G binding by eIF4E – biochemical, TR-FRET, dose response (AID 855); format: functional;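 also: potency for disrupting eIF4E binding to eIF4GI seen as loss of FRET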
Sequence of Eukaryotic translation initiation factor 4E (P63073 whole entry): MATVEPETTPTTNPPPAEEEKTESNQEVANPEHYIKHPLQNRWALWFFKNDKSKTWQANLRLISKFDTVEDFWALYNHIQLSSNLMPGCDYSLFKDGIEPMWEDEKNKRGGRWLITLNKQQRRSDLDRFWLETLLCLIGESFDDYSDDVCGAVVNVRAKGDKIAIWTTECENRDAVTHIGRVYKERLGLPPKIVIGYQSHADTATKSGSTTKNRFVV

[4] = decrease of insulin promoter-GFP reporter – imaging, high-content screening, mouse beta cells (AID 1628); format: functional; conditions: MIN6
[5] = NIH3T3 cell viability loss – ATP luminescence, mouse fibroblasts, counter-screen, dose response (AID 2010); format: functional, cell-based;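 also: cells exposed to compound for about 90 hours before reading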
[6] = molecular target: DNA dC->dU-editing enzyme APOBEC-3G (Homo sapiens, UniProt Q9HC16); format: functional;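 also: Dose-response counterscreen measuring inhibition of APOBEC3G DNA deaminase activity, run while confirming APOBEC3A inhibitors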
INS1 = assay: INS-1E survival protection against cytokine death – cell-based, luminescence, retest, dose response (AID 449756); format: functional; conditions: Rattus norvegicus;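 also: cell death triggered by IL-1 beta plus TNF-alpha plus IFN-gamma mixture; protective hits raise ATP signal compared with cytokine alone wells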
[7] = molecular target: DNA dC->dU-editing enzyme APOBEC-3A (Homo sapiens, UniProt P31941); assay: Dose Response confirmation of small molecule APOBEC3A DNA Deaminase Inhibitors via a fluorescence-based single-stranded DNA deaminase assay. [Related pubchem assays (depositor defined):AID493011, AID493024]; format: functional
Sequence of DNA dC->dU-editing enzyme APOBEC-3A (P31941 whole entry): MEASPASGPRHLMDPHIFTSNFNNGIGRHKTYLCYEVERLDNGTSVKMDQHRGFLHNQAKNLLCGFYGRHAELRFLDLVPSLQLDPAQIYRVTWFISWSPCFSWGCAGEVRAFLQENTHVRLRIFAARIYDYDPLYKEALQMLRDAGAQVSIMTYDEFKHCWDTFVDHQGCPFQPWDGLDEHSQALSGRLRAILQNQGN

[8] = Trypanosoma cruzi growth suppression in host cells – NIH3T3 host cells, beta-gal luminescence, confirmation (AID 2044); format: functional, cell-based;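 also: intracellular parasites grown in NIH/3T3 mouse fibroblasts as host cells; luminescent beta-galactosidase reporter signal from transgenic T. cruzi replicating inside host cells; inhibitors lower the luminescence signal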
[9] = MIN6 cell viability loss – mouse insulinoma, cytotoxicity control, dose response (AID 2122); format: functional;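 also: confirmatory high-throughput counterscreen run to flag cytotoxic compounds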
[10] = molecular target: Intestinal-type alkaline phosphatase (Mus musculus, UniProt P24822); assay: PubChem AID 488785; format: functional
Sequence of Intestinal-type alkaline phosphatase (Mus musculus, UniProt P24822) (P24822 whole entry): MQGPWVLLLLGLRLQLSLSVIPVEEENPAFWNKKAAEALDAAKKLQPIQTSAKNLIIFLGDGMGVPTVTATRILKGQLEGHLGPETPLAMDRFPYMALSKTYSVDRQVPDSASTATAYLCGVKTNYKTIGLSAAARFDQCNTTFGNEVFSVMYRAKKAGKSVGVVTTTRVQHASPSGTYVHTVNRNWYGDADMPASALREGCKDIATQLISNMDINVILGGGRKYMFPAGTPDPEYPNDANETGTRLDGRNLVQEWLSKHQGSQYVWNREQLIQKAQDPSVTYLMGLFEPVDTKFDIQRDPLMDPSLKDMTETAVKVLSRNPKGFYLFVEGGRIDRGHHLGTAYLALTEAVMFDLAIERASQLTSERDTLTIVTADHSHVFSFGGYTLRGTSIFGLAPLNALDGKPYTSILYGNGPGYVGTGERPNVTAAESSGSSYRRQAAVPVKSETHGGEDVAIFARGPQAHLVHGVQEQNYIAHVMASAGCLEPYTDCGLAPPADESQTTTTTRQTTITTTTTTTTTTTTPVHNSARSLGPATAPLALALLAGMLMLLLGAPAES

[11] = molecular target: Intestinal-type alkaline phosphatase (Homo sapiens, UniProt P09923); assay: inhibition of human intestinal alkaline phosphatase – biochemical, dose response (AID 488876); format: functional
[12] = molecular target: T1, Alkaline phosphatase, tissue-nonspecific isozyme (Homo sapiens, UniProt P05186); assay: TNAP enzyme inhibition by screening hits, dose response, selectivity assay for mouse IAP inhibitor project, biochemical, human TNAP, uHTS hits (AID 488906); format: functional
T1 sequence (P05186 whole entry): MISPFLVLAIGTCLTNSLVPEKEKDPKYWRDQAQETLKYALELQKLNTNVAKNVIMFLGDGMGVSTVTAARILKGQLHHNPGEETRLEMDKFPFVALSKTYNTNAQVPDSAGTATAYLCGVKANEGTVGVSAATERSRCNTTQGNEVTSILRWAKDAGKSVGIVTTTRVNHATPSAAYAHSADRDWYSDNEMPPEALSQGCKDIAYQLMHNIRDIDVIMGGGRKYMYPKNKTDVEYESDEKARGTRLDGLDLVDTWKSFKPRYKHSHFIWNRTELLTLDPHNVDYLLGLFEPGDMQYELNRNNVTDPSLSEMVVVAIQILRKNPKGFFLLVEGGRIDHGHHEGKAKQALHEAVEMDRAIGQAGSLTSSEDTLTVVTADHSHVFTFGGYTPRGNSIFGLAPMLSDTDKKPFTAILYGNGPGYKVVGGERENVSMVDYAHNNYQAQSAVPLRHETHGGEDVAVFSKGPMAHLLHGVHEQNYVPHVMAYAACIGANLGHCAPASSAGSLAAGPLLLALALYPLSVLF

[13] = viability of uninfected HEp-2 cells – cell-based, HTS, cytotoxicity control for RSV inhibitor project, dose response (AID 2410); format: functional; conditions: human respiratory syncytial virus
[14] = molecular target: T2, Voltage-gated N-type calcium channel alpha-1B subunit/Amyloid beta A4 precursor protein-binding family A member 1 (Homo sapiens, UniProt Q00975+Q02410); format: protein assay
T2 sequence (Q00975 whole entry, the tested form may be a part): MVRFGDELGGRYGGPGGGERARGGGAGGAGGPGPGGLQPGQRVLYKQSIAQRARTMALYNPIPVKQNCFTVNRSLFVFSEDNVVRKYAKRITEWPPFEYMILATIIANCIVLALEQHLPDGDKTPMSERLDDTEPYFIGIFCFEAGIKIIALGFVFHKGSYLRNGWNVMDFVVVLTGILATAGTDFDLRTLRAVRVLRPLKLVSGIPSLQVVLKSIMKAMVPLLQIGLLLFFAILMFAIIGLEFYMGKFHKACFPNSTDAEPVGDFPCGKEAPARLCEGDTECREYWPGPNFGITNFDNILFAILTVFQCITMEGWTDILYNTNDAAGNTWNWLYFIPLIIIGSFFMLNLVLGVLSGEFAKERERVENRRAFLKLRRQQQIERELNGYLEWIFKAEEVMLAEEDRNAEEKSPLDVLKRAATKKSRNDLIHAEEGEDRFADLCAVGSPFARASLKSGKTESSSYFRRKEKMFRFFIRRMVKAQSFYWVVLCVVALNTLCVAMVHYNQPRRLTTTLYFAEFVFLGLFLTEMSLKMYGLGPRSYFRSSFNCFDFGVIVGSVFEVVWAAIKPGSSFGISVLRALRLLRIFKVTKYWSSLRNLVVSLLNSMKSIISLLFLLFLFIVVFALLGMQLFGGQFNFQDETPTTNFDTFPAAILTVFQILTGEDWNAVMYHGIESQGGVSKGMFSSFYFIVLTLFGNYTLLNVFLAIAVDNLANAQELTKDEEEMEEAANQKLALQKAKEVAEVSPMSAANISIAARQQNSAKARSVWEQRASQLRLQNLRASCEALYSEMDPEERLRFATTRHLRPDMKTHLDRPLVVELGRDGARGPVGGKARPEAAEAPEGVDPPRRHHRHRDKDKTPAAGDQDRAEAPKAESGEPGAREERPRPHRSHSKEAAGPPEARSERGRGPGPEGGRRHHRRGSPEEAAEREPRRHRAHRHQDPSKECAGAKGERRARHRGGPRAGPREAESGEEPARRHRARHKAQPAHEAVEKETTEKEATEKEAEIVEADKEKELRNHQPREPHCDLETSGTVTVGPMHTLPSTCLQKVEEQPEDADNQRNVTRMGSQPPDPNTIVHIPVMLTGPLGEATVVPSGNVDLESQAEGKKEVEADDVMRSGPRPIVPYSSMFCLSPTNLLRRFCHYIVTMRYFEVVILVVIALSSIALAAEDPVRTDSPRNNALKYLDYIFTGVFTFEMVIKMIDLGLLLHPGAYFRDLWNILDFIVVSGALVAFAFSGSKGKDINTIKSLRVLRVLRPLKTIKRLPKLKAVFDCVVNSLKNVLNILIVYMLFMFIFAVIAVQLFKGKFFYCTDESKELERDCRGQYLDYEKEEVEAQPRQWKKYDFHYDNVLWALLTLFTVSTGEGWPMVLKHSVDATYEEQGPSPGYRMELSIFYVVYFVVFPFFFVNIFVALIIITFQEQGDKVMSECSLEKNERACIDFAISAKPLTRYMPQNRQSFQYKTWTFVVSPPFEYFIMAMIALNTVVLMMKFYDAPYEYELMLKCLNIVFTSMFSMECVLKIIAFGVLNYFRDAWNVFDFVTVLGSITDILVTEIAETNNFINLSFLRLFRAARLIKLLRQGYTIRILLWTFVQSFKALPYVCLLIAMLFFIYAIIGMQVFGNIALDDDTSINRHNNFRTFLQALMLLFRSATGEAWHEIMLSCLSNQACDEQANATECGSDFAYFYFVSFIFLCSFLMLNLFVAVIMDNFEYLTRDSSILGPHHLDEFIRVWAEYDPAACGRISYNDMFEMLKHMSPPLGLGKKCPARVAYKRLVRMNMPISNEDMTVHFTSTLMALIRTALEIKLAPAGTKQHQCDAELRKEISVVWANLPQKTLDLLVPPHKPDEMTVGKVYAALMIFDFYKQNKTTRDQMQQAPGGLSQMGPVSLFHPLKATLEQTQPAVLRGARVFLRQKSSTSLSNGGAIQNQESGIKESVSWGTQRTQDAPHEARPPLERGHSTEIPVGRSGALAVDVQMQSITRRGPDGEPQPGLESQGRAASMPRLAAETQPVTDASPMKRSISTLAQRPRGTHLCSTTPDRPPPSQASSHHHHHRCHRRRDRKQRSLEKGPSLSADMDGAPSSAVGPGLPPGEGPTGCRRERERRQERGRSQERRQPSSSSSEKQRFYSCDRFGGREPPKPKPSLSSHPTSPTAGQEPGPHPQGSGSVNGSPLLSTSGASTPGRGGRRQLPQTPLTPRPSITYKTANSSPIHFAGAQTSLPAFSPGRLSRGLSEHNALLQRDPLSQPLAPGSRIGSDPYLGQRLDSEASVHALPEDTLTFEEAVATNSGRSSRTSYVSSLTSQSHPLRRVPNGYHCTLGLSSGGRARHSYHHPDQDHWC
T2 sequence (Q02410 whole entry, the tested form may be a part): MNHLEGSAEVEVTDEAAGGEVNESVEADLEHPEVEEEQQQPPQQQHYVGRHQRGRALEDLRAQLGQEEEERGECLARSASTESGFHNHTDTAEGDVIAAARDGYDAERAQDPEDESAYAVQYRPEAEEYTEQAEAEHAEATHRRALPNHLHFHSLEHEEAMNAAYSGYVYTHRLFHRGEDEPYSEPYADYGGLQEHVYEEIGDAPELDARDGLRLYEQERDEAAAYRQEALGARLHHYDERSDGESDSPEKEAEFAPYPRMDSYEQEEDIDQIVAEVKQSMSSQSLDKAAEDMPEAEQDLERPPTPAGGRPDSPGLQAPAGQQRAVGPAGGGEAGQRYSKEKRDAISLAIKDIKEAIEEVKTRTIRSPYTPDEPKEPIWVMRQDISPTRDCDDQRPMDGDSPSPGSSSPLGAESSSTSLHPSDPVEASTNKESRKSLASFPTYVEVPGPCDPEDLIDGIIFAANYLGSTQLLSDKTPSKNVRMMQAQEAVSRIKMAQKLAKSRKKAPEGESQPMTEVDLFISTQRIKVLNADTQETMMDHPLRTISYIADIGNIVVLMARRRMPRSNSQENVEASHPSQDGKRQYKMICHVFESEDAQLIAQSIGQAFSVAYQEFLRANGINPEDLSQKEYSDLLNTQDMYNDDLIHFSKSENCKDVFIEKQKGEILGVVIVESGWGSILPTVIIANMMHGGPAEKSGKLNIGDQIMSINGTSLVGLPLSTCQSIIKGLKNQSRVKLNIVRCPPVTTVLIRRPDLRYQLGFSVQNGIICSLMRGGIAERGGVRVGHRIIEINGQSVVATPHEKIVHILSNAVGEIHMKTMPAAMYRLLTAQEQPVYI

[15] = molecular target: T3, RNA-binding protein pos-1 (Caenorhabditis elegans, UniProt G5EF15); assay: disruptors of C. elegans POS-1 RNA interaction – biochemical, fluorescence polarization, dose response (AID 1964);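 also: purified POS-1 fused to maltose binding protein made in E. coli; potency of compounds blocking POS-1 binding to fluorescent RNA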
T3 sequence (G5EF15 whole entry): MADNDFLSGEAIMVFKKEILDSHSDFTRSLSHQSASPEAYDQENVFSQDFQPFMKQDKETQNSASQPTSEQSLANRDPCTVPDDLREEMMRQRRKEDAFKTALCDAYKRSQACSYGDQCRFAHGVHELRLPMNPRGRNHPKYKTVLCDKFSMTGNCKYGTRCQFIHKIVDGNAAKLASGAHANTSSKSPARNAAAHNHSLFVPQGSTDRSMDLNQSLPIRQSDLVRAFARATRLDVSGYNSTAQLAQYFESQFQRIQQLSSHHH

[16] = molecular target: T4, Endoribonuclease toxin MazF (Escherichia coli K-12, UniProt P0AE70); assay: substrate-only fluorescence increase artefacts – biochemical, single-stranded RNase substrate, counter-screen for MazEF activator project, dose response (AID 588502); format: functional
T4 sequence (P0AE70 whole entry): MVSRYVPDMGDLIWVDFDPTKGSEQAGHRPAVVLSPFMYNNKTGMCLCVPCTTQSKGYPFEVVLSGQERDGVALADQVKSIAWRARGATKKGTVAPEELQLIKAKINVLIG

[17] = molecular target: T2, Voltage-gated N-type calcium channel alpha-1B subunit/Amyloid beta A4 precursor protein-binding family A member 1; format: protein assay; remark: listed apart in the source
[18] = molecular target: T5, Zinc finger protein mex-5 (Caenorhabditis elegans, UniProt Q9XUB2); assay: potency of MEX-5 RNA-binding blockers – biochemical, C. elegans, fluorescence polarization, dose response (AID 1960)
T5 sequence (Q9XUB2 whole entry): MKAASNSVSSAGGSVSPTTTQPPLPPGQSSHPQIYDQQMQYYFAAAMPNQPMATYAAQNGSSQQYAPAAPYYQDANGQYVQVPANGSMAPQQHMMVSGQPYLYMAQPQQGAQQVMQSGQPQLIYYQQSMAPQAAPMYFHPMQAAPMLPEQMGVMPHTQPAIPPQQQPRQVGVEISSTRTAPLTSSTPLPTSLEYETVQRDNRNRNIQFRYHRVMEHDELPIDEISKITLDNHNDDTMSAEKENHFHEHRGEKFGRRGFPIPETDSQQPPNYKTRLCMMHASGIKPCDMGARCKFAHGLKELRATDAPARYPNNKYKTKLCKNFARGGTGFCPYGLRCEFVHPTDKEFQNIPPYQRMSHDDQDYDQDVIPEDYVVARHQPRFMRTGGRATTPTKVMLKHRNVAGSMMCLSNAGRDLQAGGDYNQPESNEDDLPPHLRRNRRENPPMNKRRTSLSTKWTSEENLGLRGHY

[19] = molecular target: T4, Endoribonuclease toxin MazF; assay: activation of MazEF endoribonuclease cleavage – biochemical, fluorescence, single-stranded RNA substrate, uHTS hits, dose response (AID 588481); format: functional

With O=C(CSc1nc2ccccc2c(=O)n1-c1ccccc1)NCC1CCCO1 (stereo unspecified) the IC50 [1] was > 100 µM (inactive) and the IC50 [2] was 6.35 µM (active).

In the case of O=C(NC1CCCCCCC1)C1CCN(S(=O)(=O)N2CCCC2)CC1, the IC50 [3] is reported as > 64 µM (inactive).

With CCCCCCCC[n+]1c(C)n(-c2ccccc2)c2ccc(NC(C)=O)cc21 the IC50 [4] was < 0.25 µM (active), the EC50 [5] was > 60 µM (not active) and the IC50 [6] was 2.66 µM (active). For the same compound, the AC50 (INS1) was 2.41 µM (active), the IC50 [7] was 1.44 µM (active) and the EC50 [8] was 0.768 µM (active). The IC50 [9] was < 0.25 µM (active).

With NS(=O)(=O)c1cc(C(=O)N=Nc2c(O)[nH]c3ccccc23)ccc1Cl the IC50 [10] was 42.4 µM (active), the IC50 [11] was > 100 µM (inactive) and the IC50 [12] was > 100 µM (inactive).

With CC(Oc1ccc(Cl)cc1Cl)C(=O)NNC(=O)C(=O)N1CCCCC1 (stereo unspecified) the IC50 (cells) was 40.6 µM (active) and the CC50 [13] was > 50 µM (active).

With CCOC(=O)Cn1c2ccc(OC)cc2c2nc3ccccc3nc21 the IC50 [14] was > 50 µM (inactive), the EC50 [15] was 0.862 µM (inconclusive) and the EC50 [16] was 50.7 µM (inactive). For the same compound, the IC50 [17] was 4.34 µM (active), the EC50 [18] was 2.26 µM (active) and the EC50 [19] was > 99 µM (inactive).

With CCOC(=O)c1ccc2c(c1)[n+](CCO)c(C)n2CC the IC50 [1] was > 100 µM (inactive) and the IC50 [2] was 3.29 µM (active).

For CCNc1ccc(C(=O)OCC(=O)NC(C)c2ccccc2)cc1[N+](=O)[O-] (stereo unspecified), the IC50 [3] was > 64 µM (inactive).

With Cc1ccc(OCCn2c(C3CC(=O)N(Cc4ccccc4)C3)nc3ccccc32)cc1 (stereo unspecified) the IC50 (cells) was 3.14 µM (active) and the CC50 [13] was 25.4 µM (active).
